Counter-ions that a name gives are not always drawn. Marks after values point to notes of the source that are not given here.
Assay: Plasma metabolite profiling (GC-MS, LC-MS, SPE-LC-MS) of rats dosed once daily over 28 days; treatment ratios versus untreated control
Format: in vivo, rat
Details: plasma, female rats
Method in brief: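 Male and female rats (5/sex/group) dosed once daily for 28 days; fasted anaesthetized animals bled retro-orbitally (EDTA plasma) on days 7, 14, 28, stored −80 °C under N2. Polar and lipid fractions profiled by GC-MS (derivatized), LC-MS/MRM; steroids by online SPE-LC-MS. Pool-normalized data; treatment ratios vs sex-matched controls, Welch test p-values.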

In the case of O=C1Cc2cc(CCN3CCN(c4nsc5ccccc45)CC3)c(Cl)cc2N1 [Ziprasidone hydrochloride], the “Ceramide (d18:1,C24:1), ratio versus control” value (day 7, high dose, Table 4a) is reported as 1.23, the “Docosapentaenoic acid (C22:cis[7,10,13,16,19]5), ratio versus control” value (shortened to “Docosapentaenoic acid … ratio versus control”) (day 7, high dose, Table 4a) is reported as 2.26* and the “Elaidic acid (C18:trans[9]1), ratio versus control” value (day 7, high dose, Table 4a) is reported as 1.52*. For the same compound, the “Galactose, lipid fraction, ratio versus control” value (day 7, high dose, Table 4a) was 1.46*, the “Myristic acid (C14:0), ratio versus control” value (day 7, high dose, Table 4a) was 1.53* and the “Phosphatidylcholine (C16:0,C16:0), ratio versus control” value (day 7, high dose, Table 4a) was 1.4*. The “Progesterone, ratio versus control” value (day 7, high dose, Table 4a) was 9.81*, the “TAG No 07, ratio versus control” value (day 7, high dose, Table 4a) was 3.4* and the “Creatinine, ratio versus control” value (day 7, high dose, Table 4b) was 0.87. The “Glutamate, ratio versus control” value (day 7, high dose, Table 4b) was 0.67*, the “Glycine, ratio versus control” value (day 7, high dose, Table 4b) was 0.86* and the “Lactate, ratio versus control” value (day 7, high dose, Table 4b) was 0.6*. For the same compound, the “Myristic acid (C14:0), ratio versus control” value (day 7, high dose, Table 4b) was 1.53, the “Normetanephrine, ratio versus control” value (day 7, high dose, Table 4b) was 0.73* and the “Phosphocreatine, ratio versus control” value (day 7, high dose, Table 4b) was 0.61*. The “Serotonin (5-HT), ratio versus control” value (day 7, high dose, Table 4b) was 0.11*, the “Uric acid, ratio versus control” value (day 7, high dose, Table 4b) was 0.51* and the “4-Hydroxysphinganine (t18:0, Phytosphingosine), total, ratio versus control” value (day 7, high dose, Table 6c) was 1.49*. The “Docosahexaenoic acid (C22:cis[4,7,10,13,16,19]6), ratio versus control” value (day 7, high dose, Table 6c) was 1.7*, the “Docosapentaenoic acid … ratio versus control” value (day 7, high dose, Table 6c) was 2.26* and the “Galactose, lipid fraction, ratio versus control” value (day 7, high dose, Table 6c) was 1.46*. For the same compound, the “Palmitic acid (C16:0), ratio versus control” value (day 7, high dose, Table 6c) was 1.56*, the “Phosphatidylcholine (C16:0,C16:0), ratio versus control” value (day 7, high dose, Table 6c) was 1.4* and the “Phosphatidylcholine (C16:0,C22:6), ratio versus control” value (day 7, high dose, Table 6c) was 1.02. For the same compound, the “Phosphatidylcholine No 02, ratio versus control” value (day 7, high dose, Table 6c) was 1.17*, the “TAG (C16:0,C16:1), ratio versus control” value (day 7, high dose, Table 6c) was 4.38* and the “TAG (C16:0,C18:1,C18:3), ratio versus control” value (day 7, high dose, Table 6c) was 2.8*. The “TAG (C16:0,C18:2), ratio versus control” value (day 7, high dose, Table 6c) was 2.47*, the “TAG (C18:2,C18:2), ratio versus control” value (day 7, high dose, Table 6c) was 2.44* and the “TAG (C18:2,C18:3), ratio versus control” value (day 7, high dose, Table 6c) was 3.48*. The “TAG (C18:3,C18:2,C18:1), ratio versus control” value (day 7, high dose, Table 6c) was 3.89*, the “TAG No 059, ratio versus control” value (day 7, high dose, Table 6c) was 3.12* and the “4-Hydroxyphenylpyruvate, ratio versus control” value (day 7, high dose, Table 6d) was 0.42*. The “Glycine, ratio versus control” value (day 7, high dose, Table 6d) was 0.86*, the “Lactate, ratio versus control” value (day 7, high dose, Table 6d) was 0.6* and the “Lysophosphatidylcholine (C16:0), ratio versus control” value (day 7, high dose, Table 6d) was 0.99*. For the same compound, the “Uric acid, ratio versus control” value (day 7, high dose, Table 6d) was 0.51*, the “Ceramide (d18:1,C24:1), ratio versus control” value (day 14, high dose, Table 4a) was 1.47* and the “Docosapentaenoic acid … ratio versus control” value (day 14, high dose, Table 4a) was 1.55*. For the same compound, the “Elaidic acid (C18:trans[9]1), ratio versus control” value (day 14, high dose, Table 4a) was 0.97, the “Galactose, lipid fraction, ratio versus control” value (day 14, high dose, Table 4a) was 1.17* and the “Myristic acid (C14:0), ratio versus control” value (day 14, high dose, Table 4a) was 1.09. The “Phosphatidylcholine (C16:1,C18:2), ratio versus control” value (day 14, high dose, Table 4a) was 1.06, the “Progesterone, ratio versus control” value (day 14, high dose, Table 4a) was 1.28 and the “TAG No 07, ratio versus control” value (day 14, high dose, Table 4a) was 0.62. For the same compound, the “myo-Inositol, lipid fraction, ratio versus control” value (day 14, high dose, Table 4a) was 1.26*, the “Creatinine, ratio versus control” value (day 14, high dose, Table 4b) was 1.02 and the “Glutamate, ratio versus control” value (day 14, high dose, Table 4b) was 0.71*. The “Glycine, ratio versus control” value (day 14, high dose, Table 4b) was 0.86*, the “Lactate, ratio versus control” value (day 14, high dose, Table 4b) was 0.66 and the “Myristic acid (C14:0), ratio versus control” value (day 14, high dose, Table 4b) was 1.09. The “Normetanephrine, ratio versus control” value (day 14, high dose, Table 4b) was 0.88, the “Serotonin (5-HT), ratio versus control” value (day 14, high dose, Table 4b) was 0.59 and the “Uric acid, ratio versus control” value (day 14, high dose, Table 4b) was 0.5*. For the same compound, the “4-Hydroxysphinganine (t18:0, Phytosphingosine), total, ratio versus control” value (day 14, high dose, Table 6c) was 1.43*, the “Docosahexaenoic acid (C22:cis[4,7,10,13,16,19]6), ratio versus control” value (day 14, high dose, Table 6c) was 1.43* and the “Docosapentaenoic acid … ratio versus control” value (day 14, high dose, Table 6c) was 1.55*. The “Galactose, lipid fraction, ratio versus control” value (day 14, high dose, Table 6c) was 1.17*, the “Phosphatidylcholine (C16:0,C20:5), ratio versus control” value (day 14, high dose, Table 6c) was 0.99 and the “Phosphatidylcholine (C16:0,C22:6), ratio versus control” value (day 14, high dose, Table 6c) was 1.22*. For the same compound, the “Phosphatidylcholine (C16:1,C18:2), ratio versus control” value (day 14, high dose, Table 6c) was 1.06, the “Phosphatidylcholine No 02, ratio versus control” value (day 14, high dose, Table 6c) was 1.19* and the “TAG (C16:0,C16:1), ratio versus control” value (day 14, high dose, Table 6c) was 0.81. The “TAG (C16:0,C18:1,C18:3), ratio versus control” value (day 14, high dose, Table 6c) was 0.76, the “TAG (C16:0,C18:2), ratio versus control” value (day 14, high dose, Table 6c) was 0.91 and the “TAG (C18:2,C18:2), ratio versus control” value (day 14, high dose, Table 6c) was 0.81. For the same compound, the “TAG (C18:2,C18:3), ratio versus control” value (day 14, high dose, Table 6c) was 0.76 and the “TAG (C18:3,C18:2,C18:1), ratio versus control” value (day 14, high dose, Table 6c) was 0.91.

— US20150031572A1, “MEANS AND METHODS FOR ASSESSING NEURONAL TOXICITY” (priority 2012, published 2015)
